Results reported in patent publication US20160166507A1, “NANOEMULSIONS OF HYDROPHOBIC PLATINUM DERIVATIVES” (NEMUCORE MEDICAL INNOVATIONS, INC., priority 2013, published 2016).

How the values were obtained:
[1] = system: SKOV-3 Ovarian Cancer Cells; experiment: MTT cytotoxicity assay with combination index analysis; type: cell-based, human; settings: for Degree of Combination Effect: Pt complex with CER
Procedure: In order to determine if the nanoemulsion formulations according to the disclosure produce a cytotoxic effect, the following experiments were done on SKOV3 cells.
A tetrazolium (MTT) assay was performed, which measures the activity of cellular enzymes that reduces the MTT dye to insoluble formazan. SKOV3 cells were treated with corresponding test nanoemulsions or control solutions as indicated below in Table VI. Polyethylenimine at 50 μg/ml was used as a positive control for cytotoxicity. The effect of cis-Pt in solution, nanoemulsion formulations, and EGFR-targeted nanoemulsion formulations of the disclosure on the viability of ovarian SKOV3 cells were studied and measured after 72 hr treatment. After the completion of treatment, cells were incubated with MTT reagent (50 μg/well) for 2 hr. The resulting formazan crystals were dissolved in dimethyl sulfoxide ([…]) and measured at 570 nm in the Plate reader (Synergy HT, Biotek Instruments, Winooski, Vt.).
Values are shown as mean±SD, n=8. All IC50 values were obtained by analyzing the MTT assays results using Graphpad Prism 5 scientific data analysis software.
The optimum concentration of multiple chemotherapeutic agents combined in the nanoemulsion formulations of the present disclosure can be determined by calculating the combination index from the dose response curves of the single agents (Chou (2006) Pharmacol. Rev. 58(3): 621-681). This method uses the isobologram equation below to determine combination index (CI): […]
where, “a” is the primary therapeutic IC50 in combination with secondary therapeutic at concentration “b.” “A” is the primary therapeutic IC50 without secondary therapeutic; and “B” is the secondary therapeutic IC50 in the absence of primary therapeutic. The CI represents the degree of interaction between two drugs regardless of mechanism. […]
For the nanoemulsion formulations of the present disclosure, the ratio of Pt:CER was determined in order to identify ratios that could reduce the IC50 of Pt.

[2] = system: SKOV3 human ovary cancer cells; experiment: In vivo therapeutic efficacy in mice injected ip with SKOV3 cells; design: species or system Nu/Nu female mice
Procedure: In order to determine if the nanoemulsion formulations according to the disclosure produce therapeutic efficacy against cancer in vivo, the following experiment was performed. Orthotropic tumors were developed in 30 Nu/Nu female mice, each weighing approximately 20 g (Charles River Laboratories, Cambridge, Mass.). The mice were injected intraperitoneally (ip) with 4×10^6 SKOV3 human ovary cancer cells (ATCC, Manassas, Va.) suspended in phosphate buffered saline100 μl PBS. The 30 mice were divided into 3 test groups of 10 individual mice. Each mouse was then dosed every 7 d for 5 wk with either nothing (control group) or 1 of 2 test compounds. The first test compound (cisplatin) was administered as a comparative sample in 5 mg/kg doses. The second test compound (EGFR-targeted nanoemulsion formulation containing Pt-MMA and ceramide in a 1:5 molar ratio) was administered in 3 cycles of 5 mg/kg platinum and an additional 2 cycles of 7.5 mg/kg platinum. The doses of Pt-MMA (21 mg/kg) and cis-Platin (5 mg/kg) were calculated so that animals received equivalent amounts of Pt. The survival time of each group of mice was determined and the median survival time (days) calculated using Graphpad Kaplan-Meyers survival analysis software on the basis of the observed survival time of each mouse.

[3] = cited from earlier work
[4] = dosed every 7 d for 5 wk, SKOV3, Nu/Nu mice

Molecule: CCCCCCCCCCCCC/C=C/[C@H](O)[C@@H](CO)NC(=O)CCCCC [CER in Solution, C6-ceramide]
- IC50 ([1]; Homo sapiens, SK-OV-3, SKOV-3 cells, MTT, 72 hr treatment, mean±SD, n=8, read-out: IC50 (nM), inhibition of growth): 10000 nM

Molecule: N.N.[Cl][Pt][Cl] [Cisplatin in Solution, Cis-dichlorodiammine Pt (II)]
- Median Survival ([2]; Kaplan-Meyers analysis, 10 mice per group): 28 days
- Average Tumor Size at 21 Days (mm^3) [2, 4]: 640 ± 314 mm^3
- Time for First Tumor to Reach 1000 mm^3 [2, 4]: 17 days

Molecule: N.N.O=C([O-])C1(C(=O)[O-])CCC1.[Pt+2] [carboplatin]
- half life (published values) [3]: 50.4 min

Molecule: cis-Diamine Pt (II) Chloride Monomyristic Acid [Cisplatin-mono-myristate]
- Degree of Combination Effect [1]: synergistically

Molecule: cis-Diamine Pt (II) Chloride Monopalmitic Acid [Cisplatin-mono-palmitate]
- Degree of Combination Effect [1]: synergistically
